Target: human PDE1B enzyme (Homo sapiens (Human), UniProt Q01064)
Assay: IMAP TR-FRET PDE1B enzymatic assay
Type: biochemical
Settings: negative log of half-maximal molar inhibitory concentration, 200 nM FAM-cAMP, values given as bins; for IC50: read-out: PDE1b (pIC50) (converted)
Protocol: PDE1B inhibition was determined by an IMAP TR-FRET assay. The IMAP TR-FRET PDE assay was optimized for concentration of enzyme, Calmodulin, cAMP or cGMP substrate, DMSO tolerance, and incubation time.
Into each well of a solid white 1536 well plate (Corning) was dispensed 250 pg full-length recombinant NH-terminal GST tagged human PDE1B enzyme (BPS Bioscience Cat #60011, San Diego, CA) in 2.5 μL IMAP BSA reaction buffer (Molecular Devices, Sunnyvale, CA) containing 10 U/ml Calmodulin and 2.5 mM CaCl2) (Sigma Aldrich.) After a brief centrifugation, 30 nL of compound was added by transfer from 1 mM stock in DMSO using a Kalypsys 1536 Pintool. Plates were incubated for 5 minutes at room temperature before dispensing 1.5 μL of 533 nM 5-carboxy fluorescein (FAM)-labeled cAMP (Molecular Devices, Sunnyvale, CA) for a final concentration of 200 nM. After a brief centrifugation, the plates were incubated for 30 minutes at room temperature. The assay was terminated by adding 5 μL IMAP binding reagent/Tb complex (Molecular Devices, Sunnyvale, CA) to each well.
Plates were incubated for 1 hour at room temperature and were read on a Viewlux multimode plate reader (Perkin Elmer). The instrument was set to excite using the DUG11 filter and measure using 490/10 nm and 520/10 nm filters. Ratios of acceptor and donor were then calculated.
For IC50 calculations, the values of % efficacy versus a series of compound concentrations were then plotted using non-linear regression analysis of sigmoidal dose-response curves generated with the equation Y=[B+(T−B)]/[1+10((Log EC50−X)×Hill Slope)], where Y=percent activity, B=minimum percent efficacy, T=maximum percent efficacy, X=logarithm of compound and Hill Slope=slope factor or Hill coefficient. The IC50 value was determined by the concentration causing a half-maximal percent efficacy.

| Structure (SMILES) | PDE1b (pIC50) | IC50 [nM] |
| --- | --- | --- |
| Cc1oc2ncnc(NC3(C)CC3)c2c1C(=O)N1CCC(c2ccnc(F)c2)C1 (centres unmarked) [Example 21, 5-[3-(2-Fluoropyridin-4-yl)pyrrolidine-1-carbonyl]-6-methyl-N-(1-methylcyclopropyl)furo[2,3-d]pyrimidin-4-amine] | >8 | – |
| Cc1oc2ncnc(NC3(C)CC3)c2c1C(=O)N1CCc2c(nc(C(C)C)[nH]c2=O)C1 [Example 22, 2-Isopropyl-7-(6-methyl-4-((1-methylcyclopropyl)amino)furo[2,3-d]pyrimidine-5-carbonyl)-5,6,7,8-tetrahydropyrido[3,4-d]pyrimidin-4(3H)-one] | – | 10 to 100 |
| CCc1ncnc2c1CCN(C(=O)c1c(C)oc3ncnc(NC4(C)CC4)c13)C2 [Example 23, 5-{4-Ethyl-5H,6H,7H,8H-pyrido[3,4-d]pyrimidine-7-carbonyl}-6-methyl-N-(1-methylcyclopropyl)furo[2,3-d]pyrimidin-4-amine] | – | 10 to 100 |
| Cc1oc2ncnc(NC3(C)CC3)c2c1C(=O)N1CCc2c(C#N)ncnc2C1 [Example 24, 7-(6-Methyl-4-((1-methylcyclopropyl)amino)furo[2,3-d]pyrimidine-5-carbonyl)-5,6,7,8-tetrahydropyrido[3,4-d]pyrimidine-4-carbonitrile] | – | 100 to 1000 |
| CCOc1ncnc2c1CCN(C(=O)c1c(C)oc3ncnc(NC4(C)CC4)c13)C2 [Example 25, 5-{4-Ethoxy-5H,6H,7H,8H-pyrido[3,4-d]pyrimidine-7-carbonyl}-6-methyl-N-(1-methylcyclopropyl)furo[2,3-d]pyrimidin-4-amine] | >8 | – |
| Cc1oc2ncnc(NC3(C)CC3)c2c1C(=O)N1CCC(c2nccc(NCCF)n2)CC1 [Example 26, (4-(4-((2-Fluoroethyl)amino)pyrimidin-2-yl)piperidin-1-yl)(6-methyl-4-((1-methylcyclopropyl)amino)furo[2,3-d]pyrimidin-5-yl)methanone] | >8 | – |
| COc1nc(C(C)C)nc2c1CCN(C(=O)c1c(C)oc3ncnc(NC4(C)CC4)c13)C2 [Example 27, 5-[4-Methoxy-2-(propan-2-yl)-5H,6H,7H,8H-pyrido[3,4-d]pyrimidine-7-carbonyl]-6-methyl-N-(1-methylcyclopropyl)furo[2,3-d]pyrimidin-4-amine] | >8 | – |
| COc1cc(CN(C(=O)c2c(C)oc3ncnc(NC4(C)CC4)c23)C2CC2)ncn1 [Example 28, N-Cyclopropyl-N-[(6-methoxypyrimidin-4-yl)methyl]-6-methyl-4-[(1-methylcyclopropyl)amino]furo[2,3-d]pyrimidine-5-carboxamide] | – | 10 to 100 |
| CCc1nc(C2CC2)n2c1CN(C(=O)c1c(C)oc3ncnc(NC4(C)CC4)c13)CC2 [Example 29, 5-{3-Cyclopropyl-1-ethyl-5H,6H,7H,8H-imidazo[1,5-a]pyrazine-7-carbonyl}-6-methyl-N-(1-methylcyclopropyl)furo[2,3-d]pyrimidin-4-amine] | – | 100 to 1000 |
| Cc1oc2ncnc(NC3(C)CC3)c2c1C(=O)N1C[C@@H]2C(c3ccccn3)[C@@H]2C1 (stereo partly drawn) [Example 30, 6-methyl-N-(1-methylcyclopropyl)-5-[(1R,5S,6S)-6-(pyridin-2-yl)-3-azabicyclo[3.1.0]hexane-3-carbonyl]furo[2,3-d]pyrimidin-4-amine] | – | 10 to 100 |
| Cc1oc2ncnc(NC3(C)CC3)c2c1C(=O)N1CC(c2ccc(F)cn2)C1 [Example 31, 5-[3-(5-Fluoropyridin-2-yl)azetidine-1-carbonyl]-6-methyl-N-(1-methylcyclopropyl)furo[2,3-d]pyrimidin-4-amine] | – | 10 to 100 |
| Cc1oc2ncnc(NC3(C)CC3)c2c1C(=O)N1CC(c2ccc(C#N)cc2)C1 [Example 32, 4-(1-{6-Methyl-4-[(1-methylcyclopropyl)amino]furo[2,3-d]pyrimidine-5-carbonyl}azetidin-3-yl)benzonitrile] | – | 10 to 100 |
| Cc1oc2ncnc(NC3(C)CC3)c2c1C(=O)N1CC(c2nccs2)C1 [Example 33, 6-Methyl-N-(1-methylcyclopropyl)-5-[3-(1,3-thiazol-2-yl)azetidine-1-carbonyl]furo[2,3-d]pyrimidin-4-amine] | – | 10 to 100 |
| Cc1oc2ncnc(NC3(C)CC3)c2c1C(=O)Nc1ccc(-c2ccoc2)nc1 [Example 34, N-[6-(Furan-3-yl)pyridin-3-yl]-6-methyl-4-[(1-methylcyclopropyl)amino]furo[2,3-d]pyrimidine-5-carboxamide] | – | 10 to 100 |
| Cc1oc2ncnc(NC3(C)CC3)c2c1C(=O)N1CCN(c2nccs2)CC1 [Example 35, 6-Methyl-N-(1-methylcyclopropyl)-5-[4-(1,3-thiazol-2-yl)piperazine-1-carbonyl]furo[2,3-d]pyrimidin-4-amine] | – | 10 to 100 |
| Cc1oc2ncnc(NC3(C)CC3)c2c1C(=O)N1Cc2cnc(C(F)(F)F)nc2C1 [Example 36, 6-Methyl-N-(1-methylcyclopropyl)-5-[2-(trifluoromethyl)-5H,6H,7H-pyrrolo[3,4-d]pyrimidine-6-carbonyl]furo[2,3-d]pyrimidin-4-amine] | – | 100 to 1000 |
| Cc1oc2ncnc(NC3(C)CC3)c2c1C(=O)N1Cc2cnc(-c3ccc(F)cc3)nc2C1 [Example 37, 5-[2-(4-Fluorophenyl)-5H,6H,7H-pyrrolo[3,4-d]pyrimidine-6-carbonyl]-6-methyl-N-(1-methylcyclopropyl)furo[2,3-d]pyrimidin-4-amine] | – | 100 to 1000 |
| Cc1oc2ncnc(NC3(C)CC3)c2c1C(=O)N1CC(c2ncc(C(F)(F)F)cc2F)C1 [Example 38, 5-{3-[3-Fluoro-5-(trifluoromethyl)pyridin-2-yl]azetidine-1-carbonyl}-6-methyl-N-(1-methylcyclopropyl)furo[2,3-d]pyrimidin-4-amine] | – | 10 to 100 |
| Cc1ncc2c(n1)CCN(C(=O)c1c(C)oc3ncnc(NC4(C)CC4)c13)C2 [Example 39, 6-Methyl-5-f{2-methyl-5H,6H,7H,8H-pyrido[4,3-d]pyrimidine-6-carbonyl}-N-(1-methylcyclopropyl)furo[2,3-d]pyrimidin-4-amine] | – | 10 to 100 |
| COc1nccc2c1CCN(C(=O)c1c(C)oc3ncnc(NC4(C)CC4)c13)C2 [Example 40, 5-(5-Methoxy-1,2,3,4-tetrahydro-2,6-naphthyridine-2-carbonyl)-6-methyl-N-(1-methylcyclopropyl)furo[2,3-d]pyrimidin-4-amine] | – | 10 to 100 |
| Cc1oc2ncnc(NC3(C)CC3)c2c1C(=O)N1CCc2nc(C(C)(C)C)ncc2C1 [Example 41, 5-{2-tert-Butyl-5H,6H,7H,8H-pyrido[4,3-d]pyrimidine-6-carbonyl}-6-methyl-N-(1-methylcyclopropyl)furo[2,3-d]pyrimidin-4-amine] | >8 | – |
| Cc1oc2ncnc(NC3(C)CC3)c2c1C(=O)N1CCN(c2ccccn2)CC1 [Example 42, 6-Methyl-N-(1-methylcyclopropyl)-5-[4-(pyridin-2-yl)piperazine-1-carbonyl]furo[2,3-d]pyrimidin-4-amine] | >8 | – |
| Cc1oc2ncnc(NC3(C)CC3)c2c1C(=O)N1CCN(c2ccc(F)cn2)CC1 [Example 43, 5-[4-(5-Fluoropyridin-2-yl)piperazine-1-carbonyl]-6-methyl-N-(1-methylcyclopropyl)furo[2,3-d]pyrimidin-4-amine] | >8 | – |
| Cc1ccc(N2CCN(C(=O)c3c(C)oc4ncnc(NC5(C)CC5)c34)CC2)nc1 [Example 44, 6-Methyl-N-(1-methylcyclopropyl)-5-[4-(5-methylpyridin-2-yl)piperazine-1-carbonyl]furo[2,3-d]pyrimidin-4-amine] | >8 | – |
| COc1ncc2c(n1)CCN(C(=O)c1c(C)oc3ncnc(NC4(C)CC4)c13)C2 [Example 45, 5-{2-Methoxy-5H,6H,7H,8H-pyrido[4,3-d]pyrimidine-6-carbonyl}-6-methyl-N-(1-methylcyclopropyl)furo[2,3-d]pyrimidin-4-amine] | – | 10 to 100 |
| Cc1oc2ncnc(NC3(C)CC3)c2c1C(=O)Nc1ccc(N2CCOCC2)cn1 [Example 46, 6-Methyl-4-[(1-methylcyclopropyl)amino]-N-[5-(morpholin-4-yl)pyridin-2-yl]furo[2,3-d]pyrimidine-5-carboxamide] | – | 100 to 1000 |
| Cc1oc2ncnc(NC3(C)CC3)c2c1C(=O)N1CCN(c2ccc(C#N)cc2)CC1 [Example 47, 4-(4-{6-Methyl-4-[(1-methylcyclopropyl)amino]furo[2,3-d]pyrimidine-5-carbonyl}piperazin-1-yl)benzonitrile] | >8 | – |
| Cc1oc2ncnc(NC3(C)CC3)c2c1C(=O)NCc1ccc(F)cc1 [Example 48, N-[(4-Fluorophenyl)methyl]-6-methyl-4-[(1-methylcyclopropyl)amino]furo[2,3-d]pyrimidine-5-carboxamide] | – | 10 to 100 |
| Cc1oc2ncnc(NC3(C)CC3)c2c1C(=O)NCc1ccc(F)cn1 [Example 49, N-[(5-Fluoropyridin-2-yl)methyl]-6-methyl-4-[(1-methylcyclopropyl)amino]furo[2,3-d]pyrimidine-5-carboxamide] | – | 10 to 100 |
